This passage reports IC50 and Activity results from ChEMBL document CHEMBL1821645, “Synthesis and anticancer activity of (RS)-9-(2,3-dihydro-1,4-benzoxaheteroin-2-ylmethyl)-9H-purines” (Eur J Med Chem, 2011).

For assay [1], the system named is MCF7. The assay is described as follows: Antiproliferative activity against human MCF7 cells after 3 days by sulforhodamine-B colorimetric assay. It is filed as functional, cell-based. The following applies: MCF7, 72 h. (Sulforhodamine B stains cellular protein and so reports cell mass.)
Assay [2] has as its system MCF7. The experiment in a line: Cell cycle arrest in human MCF7 cells assessed as accumulation at […] phase after 48 hrs by flow cytometry (reference value: 19.29 +/- 1.68 %). In kind it is functional.
Assay [3] relates to MCF7. The assay is described as follows: Induction of apoptosis in human MCF7 cells at 3 times IC50 after 48 hrs by using Annexin V-FITC staining by flow cytometry (reference value: 0.92 +/- 1.29 %). In kind it is functional. On the technique in general: Flow cytometry measures light scatter and fluorescence of single cells or particles in a stream.
Assay [4] relates to MCF7. The assay is described as follows: Cell cycle arrest in human MCF7 cells assessed as accumulation at G2/M phase after 48 hrs by flow cytometry (reference value: 13.26 +/- 2.98 %). It is filed as functional.
The subject of assay [5] is MCF7. The experiment in a line: Cell cycle arrest in human MCF7 cells assessed as accumulation at G0/G1 phase after 48 hrs by flow cytometry (reference value: 62.79 +/- 1.30 %). In kind it is functional.
Assay [6] has as its target Eukaryotic translation initiation factor 2 subunit 1 (Homo sapiens) (UniProt P05198). The assay is described as follows: Induction of eIF2alpha phosphorylation in human MCF7 cells at 3 times IC50 after 36 hrs by Western blot analysis. In kind it is cell-based. On the technique in general: In western blotting, separated proteins are transferred to a membrane and probed.

Assay [7] has as its target Cellular tumor antigen p53 (Homo sapiens) (UniProt P04637). The assay is described as follows: Induction of p53 activation in human MCF7 cells assessed as phosphorylation at Ser15 at 3 times IC50 after 4 to 36 hrs by Western blot analysis. It is filed as cell-based.
Assay [8] has as its system MCF7. The assay is described as follows: Induction of apoptosis in human MCF7 cells assessed as activation of caspase 9 at 3 times IC50 after 16 to 36 hrs by immunoblotting. It is filed as functional, cell-based.

Molecules are shown by their SMILES. Calls of active or inactive are those of the source. No cut-off for these calls is given here.

Cellular tumor antigen p53 (Homo sapiens), sequence (P04637 whole entry, looked up): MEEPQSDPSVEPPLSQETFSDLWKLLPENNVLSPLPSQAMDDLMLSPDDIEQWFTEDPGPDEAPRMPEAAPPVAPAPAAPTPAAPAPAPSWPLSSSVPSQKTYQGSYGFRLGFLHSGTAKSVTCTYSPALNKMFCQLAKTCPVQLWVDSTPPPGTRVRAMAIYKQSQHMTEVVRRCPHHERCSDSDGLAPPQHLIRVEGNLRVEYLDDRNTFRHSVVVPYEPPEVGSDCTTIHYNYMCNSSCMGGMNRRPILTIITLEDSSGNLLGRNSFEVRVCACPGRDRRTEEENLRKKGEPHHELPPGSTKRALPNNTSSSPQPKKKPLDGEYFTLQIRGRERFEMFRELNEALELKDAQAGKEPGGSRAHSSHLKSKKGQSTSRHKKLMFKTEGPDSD
Eukaryotic translation initiation factor 2 subunit 1 (Homo sapiens), sequence (P05198 whole entry): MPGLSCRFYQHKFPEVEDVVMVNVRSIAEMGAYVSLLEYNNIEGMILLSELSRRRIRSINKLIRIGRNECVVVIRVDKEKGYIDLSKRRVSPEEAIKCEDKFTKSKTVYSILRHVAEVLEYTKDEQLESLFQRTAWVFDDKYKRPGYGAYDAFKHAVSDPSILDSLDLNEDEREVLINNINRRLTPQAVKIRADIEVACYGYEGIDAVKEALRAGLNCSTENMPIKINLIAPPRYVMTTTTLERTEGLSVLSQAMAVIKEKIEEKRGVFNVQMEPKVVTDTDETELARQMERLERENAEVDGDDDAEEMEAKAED

As for `Brc1ncnc2c1ncn2CC1COc2ccccc2S1` (racemic), half-maximal inhibition in the assay on MCF7 [1] (IC50) required 6.18 µM.

For the compound `Clc1ncnc2c1ncn2CC1COc2ccccc2S1` (racemic), the IC50 – broadly, the concentration that inhibits the measured activity by half – with MCF7 [1] was 10.6 µM.

Turning to `Nc1ncnc2c1ncn2CC1CSc2ccccc2O1` (racemic), the IC50 in the assay on MCF7 [1] was > 30 µM.

In the case of `Nc1ncnc2c1ncn2CC1COc2ccccc2O1` (racemic), the concentration for half-maximal inhibition (IC50) with MCF7 [1] was > 30 µM.

As for `Clc1nc(Cl)c2ncn(CC3COc4ccccc4O3)c2n1` (racemic), in the assay on MCF7 [1], the IC50 came to 19.6 µM.

Turning to `Brc1ncnc2c1ncn2CC1COc2ccccc2O1` (racemic), the Activity was found to be 10.27% in the assay with MCF7 [2], 21.66% in the assay with MCF7 [3], 36.71% in the assay with MCF7 [4] and 53.02% in the assay on MCF7 [5]. The same compound had an IC50 in the assay on MCF7 [1] of 7.64 µM.

For `Brc1ncnc2c1ncn2CC1CSc2ccccc2O1` (racemic), the Activity with MCF7 [2] was found to be 17.06%; in the assay on MCF7 [3], 14.33%; in the assay on MCF7 [4] it was 31.37%; with MCF7 [5], 51.56%. Besides, the result (in assay [6]; with MCF7 [8]) was Active. Also, in assay [7], the result was inactive. The compound also displayed a half-maximal inhibitory concentration (IC50) in the assay with MCF7 [1] of 4.87 µM.

Turning to `Clc1ncnc2c1ncn2CC1COc2ccccc2O1` (racemic), 18.8 µM corresponded to half-maximal inhibition with MCF7 [1] (IC50).

With `Clc1ncnc2c1ncn2CC1CSc2ccccc2O1` (racemic), the Activity with MCF7 [2] came out at 13.77%; in the assay on MCF7 [3], 37.99%; in the assay with MCF7 [4], 23.35%; in the assay with MCF7 [5] it was 62.87%. Also, the outcome (in assay [6]; in the assay with MCF7 [8]) was Active. The outcome in assay [7] was inactive. This compound came in with an IC50 in the assay on MCF7 [1] of 9.24 µM.

As to `CC(=O)O[C@H]1C(=O)[C@@]2(C)[C@H]([C@H](OC(=O)c3ccccc3)[C@]3(O)C[C@H](OC(=O)[C@H](O)[C@@H](NC(=O)c4ccccc4)c4ccccc4)C(C)=C1C3(C)C)[C@]1(OC(C)=O)CO[C@@H]1C[C@@H]2O`, the result in assay [7] was inactive. Besides, the outcome with MCF7 [8] was Active.

As for `Clc1nc(Cl)c2ncn(CC3CSc4ccccc4O3)c2n1` (racemic), the Activity in the assay with MCF7 [2] amounted to 10.83%; with MCF7 [3], 70.08%; in the assay with MCF7 [4], 43.89%; in the assay on MCF7 [5], 45.28%. Further, the outcome (in assay [6]; in the assay on MCF7 [8]) was Active. Besides, the result in assay [7] was inactive. Also, the IC50 in the assay on MCF7 [1] is 2.75 µM.

With `Clc1nc(Cl)c2ncn(CC3COc4ccccc4S3)c2n1` (racemic), inhibition in the assay with MCF7 [1] was half-maximal at 8.97 µM (IC50).
